Assay results: ChEMBL document CHEMBL1155034, “Constituents of the root wood of Zanthoxylum wutaiense with antitubercular activity” (2008)
Values after ≈ are worked out from the molar mass of the structure shown.

Tested on: Mycobacterium tuberculosis
Test: Antitubercular activity against Mycobacterium tuberculosis H37Rv after 2 weeks
Assay type: functional
Conditions: 336 h

| SMILES | MIC |
| --- | --- |
| COc1cc(/C=C/C=O)cc2ccoc12 | 35 µg/mL (≈ 173 µM) |
| COc1cc(CCCO)cc2ccoc12 | 50 µg/mL (≈ 242 µM) |
| COC(=O)c1cc2c(c(OC)c1)O[C@H](C(C)(C)O)C2 | 35 µg/mL (≈ 131 µM) |
| COc1c2ccccc2nc2occc12 [DICTAMNINE] | 30 µg/mL (≈ 151 µM) |
| CC[C@@H](CO)NCCN[C@@H](CC)CO [ETHAMBUTOL] | 6.25 µg/mL (≈ 30.6 µM) |
| COc1c2ccoc2nc2c(OC)cccc12 [GAMMA-FAGARINE] | 30 µg/mL (≈ 131 µM) |
| COC(=O)/C=C/c1ccc2c(c1)C[C@@H](C(C)(C)O)O2 [METHYL DEMETHOXYWUTAIENSATE] | 50 µg/mL (≈ 191 µM) |
| CC(C)=CCOc1ccc(C(=O)O)cc1 [VALENCIC ACID] | 45 µg/mL (≈ 218 µM) |
| COc1cc(/C=C/C=O)cc2c1O[C@H](C(C)(C)O)C2 [WUTAIENSAL] | 30 µg/mL (≈ 114 µM) |
